Experimental data from US7704490B2 (Institut Pasteur, priority 1998, dated 2010).
Entries after “also recorded” stand apart in the source; their conditions may differ. One block for each substance: values may come before it. No end group written: not given here.

Key:
TS1β cells = assay: TS1β proliferation assay, activity of peptides and IL-2 muteins; type: cell-based, murine; conditions: for proliferation of TS1β induced by the peptide: in the absence of IL-2
Method: Background of 1.4×10^3 cpm was subtracted. […] TS1β target cells are derived from TS1 murine cells (which only express murine IL-2Rγ), after transfection with the human IL-2Rβ gene.
The response to. IL-2 or peptide alone was substracted from that obtained from both IL-2 and peptide.
The biological activity of IL2 mutant Asp 20→Lys (□) is shown for comparison
TS1β cells were cultured (10^4 cells/well) in 96 wells in flat-bottomed microtiter plates with a final volume of 0.2 ml. […] In order to test the inhibitory effect of mAbs, different concentrations of these reagents were mixed in the culture wells with the respective lymphokines for 30 min at low temperature before adding the cells. […] Cultures were pulsed with 0.5 μCi/well of (3H) TdR after 36 h of incubation and harvested 15 h later.

IL-2R = assay: Affinity of IL-2 mutant for IL-2R; type: binding; conditions: compared with IL-2
IL-2Rβ = molecular target: T1, IL-2Rβ (Homo sapiens, UniProt P14784); conditions: cited from earlier work
T1 sequence (P14784 27-551): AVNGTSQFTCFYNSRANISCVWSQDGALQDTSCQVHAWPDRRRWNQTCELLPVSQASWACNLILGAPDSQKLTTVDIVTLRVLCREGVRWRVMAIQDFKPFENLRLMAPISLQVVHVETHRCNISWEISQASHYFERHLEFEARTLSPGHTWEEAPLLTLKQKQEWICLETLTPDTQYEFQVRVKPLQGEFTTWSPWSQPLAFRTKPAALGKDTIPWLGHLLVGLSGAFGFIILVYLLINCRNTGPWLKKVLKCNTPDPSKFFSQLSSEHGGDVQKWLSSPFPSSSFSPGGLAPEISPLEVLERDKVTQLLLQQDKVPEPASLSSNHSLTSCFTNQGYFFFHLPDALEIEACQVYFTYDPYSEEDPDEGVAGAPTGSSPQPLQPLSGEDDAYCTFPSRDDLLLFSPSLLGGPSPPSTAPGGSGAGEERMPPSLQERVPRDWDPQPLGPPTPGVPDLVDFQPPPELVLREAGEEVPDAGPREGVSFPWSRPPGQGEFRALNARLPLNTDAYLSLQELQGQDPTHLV

[1] = system: K562 or Daudi target cells; assay: Induction of LAK cells, 51Cr release lysis; type: cell-based, human; conditions: for induction of LAK cells: PBMCs stimulated 3 or 6 days, lysis of K562 and Daudi targets
Method: K562 or Daudi target cells (5×103 in 0.1 ml) labeled with Na2^51CrO4 (Amersham Pharmacia Biotech) were mixed in round-bottomed microwells with an equal volume of effector cells at various E/T ratios. After 4 hours of incubation at 37° C., the plates were centrifuged at 2,000 g for 2 min, and cell-free supernatant were collected using a Luma Plate 96 cell harvester (Lulac-LSC). Supernatant radioactivity was assayed using an automated MicroBeta 1450 trilux γ-counter (Wallac). Spontaneous release was determined by incubating target cells in medium alone. Maximum release was determined by adding 0.1 ml of 1M HCl to the target cell suspension. The percentage of specific lysis was calculated as follows: 100×(experimental ^51Cr release−spontaneous release)/(maximum ^51Cr release−spontaneous ^51Cr release).

IFN-γ production = assay: IFN-γ production; type: cell-based
mAb 19B11 = assay: ELISA inhibition of mAb 19B11 binding to IL-2 coated plates; parameters: species or system mouse; conditions: control mAb
mAb H2-8 = assay: ELISA inhibition of mAb H2-8 binding to IL-2 coated plates; parameters: species or system mouse; conditions: mAb at about 50% of maximum binding, preincubated with inhibitor
Method: Control is represented by non coated plates.
H2-8 was preincubated with different peptides including five decapeptides (1-10, 5-15, 10-20, 15-25, 20-30).

[2] = Circular dichroism, α helix content; type: physicochemical; conditions: for α-helix content: isolated peptide, circular dichroism
[3] = Sedimentation-diffusion equilibrium, quaternary structure; type: physicochemical; conditions: concentration above 5×10^−6M
Source text: The quaternary structure of peptide IP130 was also studied by sedimentation-diffusion equilibrium.

[4] = system: classical murine cell lines (C30-1, CTLL, HT-2, . . . ); assay: IP130 effects on classical murine IL-2 assay cell lines; type: cell-based; conditions: cells without human IL-2Rβ
Source text: IP130 acts only on cell lines expressing human IL-2Rβ. […] Furthermore anti-human IL-2Rβ blocking mAb neutralizes the effects of IP130.

TS1 cells = assay: IP130 proliferation of TS1 cells with or without human IL-2Rβ; type: cell-based, murine; conditions: with or without transfection by human IL-2Rβ gene
Kit 225 cell line = assay: Protein phosphorylation and c-myc induction in Kit 225 cell line; type: cell-based, human
Source text: IP130 induces SHC protein phosphorylation. […] Kinetics of Shc phosphorylation is shown on the left. A Western blot of Shc protein is shown on the right.
Alone the peptide induces the phosphorylation of proteins on Kit 225 cell line. […] STAT-3 and STAT-5 are not activated after IP130 stimulation since IL-2Rγ is not involved in IP130 interaction with Kit 225.

STAT = assay: Electrophoretic mobility shift assay of STAT activation in KIT225 nuclear extracts; type: cell-based, human; conditions: STAT-3 and STAT-5; β-casein, GAS and GIRE probes
NK cells = assay: Cell cycle entry (S+G2/M) of NK cells in stimulated PBMC; type: cell-based, human
Method: Non-specific responses (J+1 in medium) are subtracted. NK cells entry into S+G2/M phases are measured by propidium iodide and analyzed with the ModFit 2.0 software (Becton Dickinson).

Substance: IL-2 Pro125: IL-2 mutant IL-2 Pro125 (Cys→Pro) [reference compound]
- maximum proliferation of TS1β (TS1β cells; higher concentrations of mutant): without affecting the maximum proliferation
- affinity for IL-2R (IL-2R): slightly reduces the affinity

Substance: IL2 Asp 20→Lys mutant: IL-2 with substitution Asp20 by Lys [reference compound]
- biological activity on Ts1β cells (TS1β cells; 5×10-3 to 10 nM, compared with IL-2 (FIG. 18)): clearly reduced
- binding to IL-2Rβ (IL-2Rβ): prevents binding to IL-2Rβ

Substance: IP131 Asp 20→Lys: Peptide 1-31 mutated at position 20 (Asp→Lys), SEQ ID NO:8 (APTSSSTKKTQLQLEHLLLKLQMILNGINNY)
- proliferation of TS1β induced by the peptide (TS1β cells): maintains its inductive capacity on proliferation
- induction of LAK cells [1]: capacity to generate LAK cells
- induction of IFN-γ production (IFN-γ production): induce IFN-γ production

- inhibition of the binding of mAb 19B11 to IL-2 (mAb 19B11): inhibited
Substance: peptide 1-10: synthetic IL-2 decapeptide, residues 1-10 (APTSSSTKKT-NH2; UniProt P60568 21-30, looked up, fragment)

Substance: APTSSSTKKTQLQLEHLLLDLQMILNGINN [IP130]
- inhibition of the binding of mAb H2-8 to IL-2 (mAb H2-8): most efficient inhibitor
- inhibition of the binding of mAb 19B11 to IL-2 (mAb 19B11): inhibited
- residues in an α helix configuration ([2]; 20° C., phosphate buffer (20 mM, pH 7.2)): 50%
- α-helix content [2]: 50%±7%
- quaternary structure [3]: most of the molecules are in a tetrameric form
- IC-50 of proliferation and of synergy with IL-2 (TS1β cells; both activities at comparable concentrations): IC-50≅μM
- proliferation of TS1β induced by the peptide (TS1β cells): stimulates the proliferation
- synergy with IL-2 on TS1β proliferation (TS1β cells; in the presence of IL-2): strong synergy
- sensitivity of classical murine cell lines to the peptide [4]: insensitive
- proliferation of TS1 cells in the presence of IP130 (TS1 cells): TS1 cells only proliferate after transfection by the human IL-2Rβ gene
- c-myc induction (Kit 225 cell line): observed
- phosphorylation of IL-2Rβ (Kit 225 cell line; immunoprecipitation, blotting with mAb 4G10 (anti-Ptyr)): phosphorylated IL-2Rβ is identified
- phosphorylation of Shc (Kit 225 cell line; peptide alone): the kinase Shc is easily recognized; also recorded: phosphorylated after a ten minute stimulation
- STAT activation (STAT): not activated; also recorded: does not induce STAT activity
- entry of NK cells into the cell cycle (NK cells): induces NK cells to enter into the cell cycle
- induction of LAK cells [1]: able to induce LAK cells in a concentration dependent manner; also recorded: potent LAK cell response
- LAK response compared with IL-2, day 3 ([1]; day 3): weaker than that of IL-2
- LAK response compared with IL-2, day 6 ([1]; day 6): comparable
- induction of IFN-γ production (IFN-γ production): ability to induce LAK cells and IFNγ production

- inhibition of the binding of mAb 19B11 to IL-2 (mAb 19B11): inhibited
Substance: peptide 1-22: synthetic IL-2 peptide, residues 1-22 (APTSSSTKKTQLQLEHLLLDLQ; UniProt P60568 21-42, looked up, fragment)
- α-helix content [2]: 13%±5%
